# Structures can show the parent of a compound that is named as a salt.
# Target: Proton Pump (H^+/K^+-ATPase) (Sus scrofa, UniProt P19156)
# Assay: Inhibitory effects on proton pump (H^+/K^+-ATPase) activity
# Assay type: biochemical
# Conditions: hog gastric vesicles; K^+ stimulated H^+/K^+-ATPase activity; 30 minutes at 37° C.
# Sequence of Proton Pump (H^+/K^+-ATPase) (P19156 2-1034 limits assumed): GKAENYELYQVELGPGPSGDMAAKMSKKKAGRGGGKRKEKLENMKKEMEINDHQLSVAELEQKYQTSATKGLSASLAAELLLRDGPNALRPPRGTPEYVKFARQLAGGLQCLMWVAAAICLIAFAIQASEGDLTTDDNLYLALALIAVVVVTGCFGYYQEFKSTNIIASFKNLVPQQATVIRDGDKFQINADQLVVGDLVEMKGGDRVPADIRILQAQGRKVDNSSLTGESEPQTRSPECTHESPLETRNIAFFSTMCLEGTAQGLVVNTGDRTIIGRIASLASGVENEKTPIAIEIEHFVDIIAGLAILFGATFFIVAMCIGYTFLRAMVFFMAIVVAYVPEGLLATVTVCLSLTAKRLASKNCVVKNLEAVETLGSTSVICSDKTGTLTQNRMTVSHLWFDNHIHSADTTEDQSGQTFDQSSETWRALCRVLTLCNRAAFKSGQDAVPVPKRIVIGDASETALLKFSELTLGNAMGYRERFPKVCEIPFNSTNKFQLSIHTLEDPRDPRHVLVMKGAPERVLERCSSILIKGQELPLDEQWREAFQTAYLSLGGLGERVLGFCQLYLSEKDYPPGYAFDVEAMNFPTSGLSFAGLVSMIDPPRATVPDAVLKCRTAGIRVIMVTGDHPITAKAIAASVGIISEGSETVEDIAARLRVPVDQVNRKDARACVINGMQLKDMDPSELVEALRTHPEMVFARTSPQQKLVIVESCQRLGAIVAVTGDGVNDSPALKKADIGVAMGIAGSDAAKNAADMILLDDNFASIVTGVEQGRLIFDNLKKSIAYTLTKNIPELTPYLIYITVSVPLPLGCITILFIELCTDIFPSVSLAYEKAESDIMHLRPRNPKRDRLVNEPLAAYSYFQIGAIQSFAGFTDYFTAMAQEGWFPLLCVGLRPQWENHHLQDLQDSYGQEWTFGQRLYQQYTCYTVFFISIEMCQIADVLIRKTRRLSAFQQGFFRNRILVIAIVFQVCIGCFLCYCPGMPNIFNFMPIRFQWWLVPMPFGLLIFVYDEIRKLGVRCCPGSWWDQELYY
# Sequence of Proton Pump (H^+/K^+-ATPase) (P18434 whole entry partner): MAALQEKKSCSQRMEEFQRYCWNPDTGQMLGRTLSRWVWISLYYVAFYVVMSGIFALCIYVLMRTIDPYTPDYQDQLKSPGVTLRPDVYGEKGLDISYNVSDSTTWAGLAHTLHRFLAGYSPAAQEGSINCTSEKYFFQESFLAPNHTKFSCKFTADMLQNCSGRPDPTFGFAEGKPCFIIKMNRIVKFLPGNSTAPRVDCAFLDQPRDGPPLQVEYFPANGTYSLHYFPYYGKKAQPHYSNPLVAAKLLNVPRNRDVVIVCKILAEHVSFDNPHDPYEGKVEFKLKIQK
row,IC50 [µM],SMILES
1,0.039,"CCCn1c(C)c(C)c2cc(C(=O)N3CCOCC3)nc(N3CCc4ccccc4C3)c21 [Example 781, [7-(3,4-dihydro-1H-isoquinolin-2-yl)-2,3-dimethyl-1-propyl-1H-pyrrolo[2,3-c]pyridin-5-yl]-(morpholin-4-yl)-methanone hydrochloride]"
2,0.257,"Cc1c(C)n(Cc2ccccc2)c2c(N3CCc4ccccc4C3)nc(C(=O)n3ccnc3)cc12 [Example 839, [1-benzyl-7-(3,4-dihydro-1H-isoquinolin-2-yl)-2,3-dimethyl-1H-pyrrolo[2,3-c]pyridin-5-yl]-(imidazol-1-yl)-methanone hydrochloride]"
3,0.213,"Cc1c(C)n(Cc2cccc(F)c2)c2c(N3CCc4ccccc4C3)nc(C=O)cc12 [Example 864, 7-(3,4-dihydro-1H-isoquinolin-2-yl)-1-(3-fluorobenzyl)-2,3-dimethyl-1H-pyrrolo[2,3-c]pyridin-5-carbaldehyde hydrochloride]"
4,0.332,"Cc1c(C)n(Cc2ccc(F)cc2)c2c(CN(C)c3ccc(F)cc3)nccc12 [Example 118, N-[1-(4-fluorobenzyl)-2,3-dimethyl-1H-pyrrolo[2,3-c]pyridin-7-ylmethyl]-N-(4-fluorophenyl)-methylamine hydrochloride]"
5,0.1,"C=CCn1c(C)c(C)c2ccnc(-c3ccc(C=C)cc3)c21 [Example 245, 1-allyl-2,3-dimethyl-7-(4-vinylphenyl)-1H-pyrrolo[2,3-c]pyridine hydrochloride]"
6,0.129,"Cc1c(C)n(Cc2cccc(Cl)c2)c2c(N3CCc4ccccc4C3)nc(C(=O)N3CCN(C)CC3)cc12 [Example 836, [1-(3-chlorobenzyl)-7-(3,4-dihydro-1H-isoquinolin-2-yl)-2,3-dimethyl-1H-pyrrolo[2,3-c]pyridin-5-yl]-(4-methylpiperazin-1-yl)-methanone hydrochloride]"
7,0.3,"Cc1c(C)n(Cc2ccc3ccccc3c2)c2c(N3CCc4ccccc4C3)nccc12 [Example 502, 1-(naphthalen-2-ylmethyl)-7-(1,2,3,4-tetrahydroisoquinolin-2-yl)-2,3-dimethyl-1H-pyrrolo[2,3-c]pyridine hydrochloride]"
8,0.27,"Cc1c(C)n(Cc2ccccc2F)c2c(CCc3ccccc3)nccc12 [Example 450, 1-(2-fluorobenzyl)-2,3-dimethyl-7-phenethyl-1H-pyrrolo[2,3-c]pyridine hydrochloride]"
9,0.179,"Cc1c(C)n(Cc2ccncc2)c2c(N3CCc4ccccc4C3)nccc12 [Example 518, 1-(pyridin-4-ylmethyl)-7-(1,2,3,4-tetrahydroisoquinolin-2-yl)-2,3-dimethyl-1H-pyrrolo[2,3-c]pyridine hydrochloride]"
10,0.059,"COCCn1c(C)c(C)c2cc(C(=O)N3CCCCC3)nc(N3CCc4ccccc4C3)c21 [Example 792, [7-(3,4-dihydro-1H-isoquinolin-2-yl)-1-(2-methoxyethyl)-2,3-dimethyl-1H-pyrrolo[2,3-c]pyridin-5-yl]-(piperidin-1-yl)-methanone hydrochloride]"
11,0.915,"Cc1c(C)n(CC(C)C)c2c(-c3ccc(Cl)cc3)nccc12 [Example 304, 7-(4-chlorophenyl)-1-isobutyl-2,3-dimethyl-1H-pyrrolo[2,3-c]pyridine hydrochloride]"
12,0.059,"CCn1c(C)c(C)c2ccnc(N3CCc4ccccc4C3C)c21 (stereo not drawn) [Example 554, 2-(1-ethyl-2,3-dimethyl-1H-pyrrolo[2,3-c]pyridin-7-yl)-1-methyl-1,2,3,4-tetrahydroisoquinoline hydrochloride]"
13,0.42,"CSc1ccc(-c2nccc3c(C)c(C)n(Cc4ccc(F)cc4)c23)cc1 [Example 274, 2,3-dimethyl-1-(4-fluorobenzyl)-7-(4-methylsulfanylphenyl)-1H-pyrrolo[2,3-c]pyridine hydrochloride]"

# More lines, now with the values behind:
row,SMILES,IC50 [µM]
1,"Cc1c(C)n(CC(C)C)c2c(NCc3ccccc3)nccc12 [Example 184, 7-benzylamino-1-isobutyl-2,3-dimethyl-1H-pyrrolo[2,3-c]pyridine hydrochloride]",0.24
2,"Cc1c(CO)c2ccnc(N3CCc4ccccc4C3)c2n1Cc1cccc(F)c1 [Example 617, [7-(3,4-dihydro-1H-isoquinolin-2-yl)-1-(3-fluorobenzyl)-2-methyl-1H-pyrrolo[2,3-c]pyridin-3-yl]-methanol hydrochloride]",0.065
3,"Cc1c(C)n(Cc2cccnc2)c2c(N3CCc4ccccc4C3)nccc12 [Example 516, 1-(pyridin-3-ylmethyl)-7-(1,2,3,4-tetrahydroisoquinolin-2-yl)-2,3-dimethyl-1H-pyrrolo[2,3-c]pyridine hydrochloride]",0.124
4,"Cc1c(C)n(CC2CC2)c2c(N3CCc4ccccc4C3)nc(C(=O)O)cc12 [Example 740, 1-cyclopropylmethyl-7-(3,4-dihydro-1H-isoquinolin-2-yl)-2,3-dimethyl-1H-pyrrolo[2,3-c]pyridin-5-carboxylic acid]",0.267
5,"Cc1c(C)n(Cc2ccccc2)c2c(NCc3ccc(Cl)cc3)nccc12 [Example 215, 1-benzyl-7-(4-chlorobenzylamino)-2,3-dimethyl-1H-pyrrolo[2,3-c]pyridine hydrochloride]",0.42
6,"C=CCn1c(C)c(C)c2ccnc(N3CCc4ccccc4C3)c21 [Example 492, 1-allyl-7-(1,2,3,4-tetrahydroisoquinolin-2-yl)-2,3-dimethyl-1H-pyrrolo[2,3-c]pyridine phosphate]",0.007
7,"Cc1nc(Cn2c(C)c(C)c3ccnc(N4CCc5ccccc5C4C)c32)cs1 (stereo not drawn) [Example 559, 2-[2,3-dimethyl-1-(2-methylthiazol-4-ylmethyl)-1H-pyrrolo[2,3-c]pyridin-7-yl]-1-methyl-1,2,3,4-tetrahydroisoquinoline hydrochloride]",0.159
8,"C=CCn1c(C)c(C)c2cc(CN3CCN(C)CC3)nc(N3CCc4ccccc4C3)c21 [Example 879, 2-[1-allyl-2,3-dimethyl-5-(4-methylpiperazin-1-ylmethyl)-1H-pyrrolo[2,3-c]pyridin-7-yl]-1,2,3,4-tetrahydroisoquinoline hydrochloride]",0.05
9,"CCn1c(C)c(C)c2cc(N)nc(N3CCc4ccccc4C3)c21 [Example 849, 7-(3,4-dihydro-1H-isoquinolin-2-yl)-1-ethyl-2,3-dimethyl-1H-pyrrolo[2,3-c]pyridin-5-amine hydrochloride]",0.129
10,"Cc1c(CO)c2ccnc(-c3ccc4ccccc4c3)c2n1Cc1cccc(F)c1 [Example 411, 1-(3-fluorobenzyl)-3-hydroxymethyl-2-methyl-7-(naphthalen-2-yl)-1H-pyrrolo[2,3-c]pyridine hydrochloride]",0.284
11,"C=C=Cn1c(C)c(C)c2ccnc(N3CCc4ccccc4C3)c21 [Example 526, 1-(propa-1,2-dienyl)-7-(1,2,3,4-tetrahydroisoquinolin-2-yl)-2,3-dimethyl-1H-pyrrolo[2,3-c]pyridine hydrochloride]",0.179
12,"C=CCCn1c(C)c(C)c2ccnc(NCc3ccccc3)c21 [Example 181, 7-benzylamino-1-(but-3-enyl)-2,3-dimethyl-1H-pyrrolo[2,3-c]pyridine hydrochloride]",0.36
13,"CCn1c(C)c(C)c2cc(C(=O)O)nc(N3CCc4ccccc4C3)c21 [Example 738, 7-(3,4-dihydro-1H-isoquinolin-2-yl)-1-ethyl-2,3-dimethyl-1H-pyrrolo[2,3-c]pyridin-5-carboxylic acid]",0.331
14,"Cc1c(C)n(Cc2cccc(F)c2)c2c(N3CCc4cc(F)ccc4C3C)nccc12 (stereo not drawn) [Example 565, 6-fluoro-2-[1-(3-fluorobenzyl)-2,3-dimethyl-1H-pyrrolo[2,3-c]pyridin-7-yl]-1-methyl-1,2,3,4-tetrahydroisoquinoline hydrochloride]",0.33
15,"Cc1ccc(OCc2nccc3c(C)c(C)n(Cc4ccccc4)c23)cc1 [Example 15, 1-benzyl-2,3-dimethyl-7-(p-tolyloxymethyl)-1H-pyrrolo[2,3-c]pyridine hydrochloride]",0.14
16,"Cc1c(C)n(CC2CC2)c2c(CCc3ccccc3)nccc12 [Example 453, 1-cyclopropylmethyl-2,3-dimethyl-7-phenethyl-1H-pyrrolo[2,3-c]pyridine hydrochloride]",0.34
17,"Cc1c(C)n(Cc2ccc(Cl)s2)c2c(N3CCc4ccccc4C3)nccc12 [Example 514, 1-(5-chlorothiophene-2-ylmethyl)-7-(1,2,3,4-tetrahydroisoquinolin-2-yl)-2,3-dimethyl-1H-pyrrolo[2,3-c]pyridine hydrochloride]",0.2
18,"Cc1c(C)n(Cc2cccc(F)c2)c2c(-c3ccc4ccccc4c3)nccc12 [Example 405, 1-(3-fluorobenzyl)-2,3-dimethyl-7-(naphthalen-2-yl)-1H-pyrrolo[2,3-c]pyridine hydrochloride]",0.073
19,"COCn1c(C)c(C)c2cc(C(=O)N3CCCCC3)nc(N3CCc4ccccc4C3)c21 [Example 800, [7-(3,4-dihydro-1H-isoquinolin-2-yl)-1-methoxymethyl-2,3-dimethyl-1H-pyrrolo[2,3-c]pyridin-5-yl]-(piperidin-1-yl)-methanone hydrochloride]",0.091
20,"COc1cccc(Cn2c(C)c(C)c3ccnc(N4CCc5ccccc5C4)c32)c1 [Example 510, 1-(3-methoxybenzyl)-7-(1,2,3,4-tetrahydroisoquinolin-2-yl)-2,3-dimethyl-1H-pyrrolo[2,3-c]pyridine hydrochloride]",0.056
21,"Cc1c(C)n(Cc2ccc(Cl)cc2)c2c(CCc3ccccc3)nccc12 [Example 446, 1-(4-chlorobenzyl)-2,3-dimethyl-7-phenethyl-1H-pyrrolo[2,3-c]pyridine hydrochloride]",0.39
22,"COCCn1c(C)c(C)c2ccnc(N(C)Cc3ccc(F)cc3)c21 [Example 143, 7-[N-(4-fluorobenzyl)-N-methyl]amino-1-(2-methoxyethyl)-2,3-dimethyl-1H-pyrrolo[2,3-c]pyridine hydrochloride]",0.3
23,"Cc1c(C)n(Cc2ccc(F)cc2)c2c(CCc3ccccc3)nccc12 [Example 455, 1-(4-fluorobenzyl)-2,3-dimethyl-7-phenethyl-1H-pyrrolo[2,3-c]pyridine hydrochloride]",0.4
